The values below come from PMC10514461, “Characterization of a novel inhibitor for the New Delhi metallo-β-lactamase-4: Implications for drug design and combating bacterial drug resistance” (The Journal of Biological Chemistry, 2023).

Assay [1] deals with NDM-1. It counts as biochemical. Particulars: against the NDMs (NDM-1 and NDM-4).
Description: The IC50 and Ki values were determined by the direct competition between nitrocefin substrate and inhibitors under appropriately controlled experiments. Different concentrations of inhibitor ranging from 0.001 to 500 μM, a fixed concentration of 12 nM of purified protein, and 20 μM of nitrocefin substrate were used in reaction. The rate of product formation was monitored based on the absorbance at 486 nm taken at 10 s intervals for 30 min. The relative change in absorbance was evaluated as percentage inhibition, and the IC50 was determined by fitting the data to a sigmoidal dose-response curve. The enzyme inhibition constant (Ki) was derived from initial-velocity measurements by nonlinear regression via competitive-inhibition enzyme kinetics using GraphPad Prism 9.
In assay [2] the test system is Verona-integron-encoded MBL 2. The settings on record: against Verona-integron-encoded MBL 2; cited from earlier work.
For another assay, the target named is T1, NDM-4 (M154L) (Klebsiella pneumoniae, UniProt C7C422, M154L).
T1 construct: The electron density for the polypeptide chain was continuous from Gly 42 to Arg 270; polyhistidine (with TEV site) (N, cleaved yes); made in house; host or cells: Rosetta2(DE3) E. coli
T1 sequence (C7C422 42-270 M154L): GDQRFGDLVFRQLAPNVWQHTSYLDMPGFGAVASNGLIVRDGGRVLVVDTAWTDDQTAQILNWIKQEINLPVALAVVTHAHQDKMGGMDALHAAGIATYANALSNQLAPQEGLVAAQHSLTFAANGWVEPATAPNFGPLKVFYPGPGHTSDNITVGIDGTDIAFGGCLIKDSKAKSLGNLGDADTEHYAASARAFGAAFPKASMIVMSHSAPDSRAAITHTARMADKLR
Description: Steady state kinetics of nitrocefin hydrolysis, NDM-4. The settings on record: nitrocefin as substrate. It counts as biochemical. The protocol: (§1) Nitrocefin (Cayman, CAS 41906-86-9) was used as the chromogenic substrate for all enzyme kinetic assays. The enzymatic activity of purified NDM-1 and NDM-4 was determined spectrophotometrically at room temperature in 1X PBS, pH 7. The rate of product formation was monitored based on the absorbance at 486 nm taken at 10 s intervals for 30 min. The KM and kcat values were determined from ten different concentrations of nitrocefin ranging from 0.01 μM to 250 μM with at least four independent initial-velocity measurements using 12 nM of each enzyme and fitted by nonlinear regression using Michaelis–Menten enzyme kinetics with GraphPad Prism 9 (https://www.graphpad.com/).

Assay [3] has as its target NDM-1 (Klebsiella pneumoniae, UniProt C7C422). Description: Steady state kinetics of nitrocefin hydrolysis, NDM-1. It counts as biochemical. Particulars: nitrocefin as substrate. The protocol:
as §1

NDM-1 (Klebsiella pneumoniae, UniProt C7C422), sequence (C7C422 42-270 limits assumed): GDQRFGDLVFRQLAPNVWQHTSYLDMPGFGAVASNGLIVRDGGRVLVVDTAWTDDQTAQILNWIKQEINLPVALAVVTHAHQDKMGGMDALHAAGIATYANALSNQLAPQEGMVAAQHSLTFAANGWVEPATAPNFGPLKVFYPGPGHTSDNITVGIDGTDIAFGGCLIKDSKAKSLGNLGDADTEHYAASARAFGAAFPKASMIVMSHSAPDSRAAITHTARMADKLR

`O=C(O)c1cccc(=S)n1O` [Compound 1, 1-hydroxypyridine-2(1H)-thione-6-carboxylic acid]: in the assay with NDM-1 [1], the “potency over L-captopril” value is reported as > 1600 fold. Moreover, in assay [2], the “enhanced inhibition activity over parent scaffold 1,2 hydroxy pyrithione” value is on record as “more than 10 fold”.

As for `O=C(Cc1cccs1)N[C@@H]1C(=O)N2C(C(=O)O)=C(/C=C/c3ccc([N+](=O)[O-])cc3[N+](=O)[O-])CS[C@H]12` [Nitrocefin], the figures for the turnover number (kcat) on NDM-4 (M154L) (NDM-4) and at NDM-1 [3] (NDM-1) were 70 ± 7 s⁻¹ and 86 ± 11 s⁻¹, respectively. Also, the Km (as a rule, the concentration of substrate that gives half-maximal velocity) on NDM-4 (M154L) (NDM-4, 1X PBS pH 7, room temperature) was 9.4 ± 0.2 µM; on NDM-1 [3] (NDM-1, 1X PBS pH 7, room temperature), 10.9 ± 0.6 µM.
